Assay type in all cases: cell-based
The subject of data set [1] is human myocytes. Nature of the data set: Nanoindentation stiffness measurements. To be noted: failing human myocytes; 10 μM, 2 hours. The procedure:
(§1) Viable myocytes were concentrated by gravity (5-7 min) and supernatant was aspirated to remove dead cells. Myocytes were resuspended in NT solution containing 1 mM Ca^2+ and concentrated by gravity (5-7 min) again. Cardiomyocytes used acutely were maintained in NT solution for up to 6 hours. Myocytes were treated with 10 μM parthenolide (Fisher Scientific NC9013142 or Sigma P0667) or 10 μM colchicine (Sigma) at room temperature in NT solution for 2 hours. Experiments were performed within 6 hours of isolation, except for those involving viral transduction in cultured cells.
MatTek glass bottom dish was coated 5 μl of 0.5 mg/ml laminin and air dried for 10 min. Culture medium was F-10 (1×) Nutrient Mixture (Ham) [+] L-Glutamine (Life Technologies, 11550-043) supplemented with insulin-transferrin selenium-X (Gibco, 51500-056), 20 mM HEPES, 1 μg/μl primocin (Invivogen, ant-pm-1), 0.4 mM extra CaCl2, 5% FBS, 25 μM cytochalasin D (Cayman, 11330). Viable myocytes were concentrated and a proper amount of medium was added in culture so that neighboring cells were not in direct contact. […]
Mechanical properties at the microscopic scale were measured using nanoindentation (Piuma, Optics11, The Netherlands). […] The Young's moduli were calculated automatically by the software, by fitting the force vs. indentation curve to the Hertz equation. […]

The next data set concerns desmin KO myocytes. The data set is described as follows: AFM viscoelasticity, desmin KO mouse myocytes. The conditions noted are these: KO + PTL. The procedure: Animal care and procedures were approved and performed in accordance with the standards set forth by the University of Pennsylvania Institutional Animal Care and Use Committee and the Guide for the Care and Use of Laboratory Animals published by the US National Institutes of Health. Desmin knockout mice and WT littermates were provided by Dr. Robert Bloch and have been previously characterized (36). Experiments were performed blinded to genotype.
Viral constructs were permitted to express for 24-72 hours with Moi=100-200. Parthenolide (Fisher Scientific NC9013142) treatment was carried out at room temperature for 2 hours at 10 μM. All experiments were performed within 48 hours of isolation, except those involving shTTL, which were allowed 72 hours to improve knockdown efficiency.
The elastic modulus of isolated cardiomyocytes was measured using AFM indentation. Optical microscopy and AFM were performed simultaneously using an MFP3D AFM (Asylum Research) combined with an inverted Nikon TE-2000U microscope equipped with a Nikon 100×, 1.49 NA objective. TTL expression was determined by dsRED fluorescence captured via 532 nm laser excitation (CrystaLaser) and a CCD camera (Cascade-512B, Photometrics) at 900 ms exposure time controlled through the NIS Elements software package. […] Modulus characterization of myocytes was performed using 4.26 μm radius (R below) SiO2 microparticle epoxied to SiN cantilevers with nominal spring constant 0.03 N/m (CP-PNPS-SiO-A, Nano And More, USA). Cantilever spring constants were manually calibrated in air by thermal vibrations using the MFP3D prior to each experiment using a clean glass substrate. Inverse optical lever sensitivity was determined in myocyte buffer solution prior to each round of measurements.
E is the elastic modulus, υ, is the cell Poisson ratio and δ is the indentation depth. Transverse compression of the cardiomyocyte is performed over a range of indentation speeds and the indentation speed is divided by the total indentation depth to obtain an effective indentation rate, f. […]

The test system of a further data set is desmin. The data set is described as follows: Microtubule co-sedimentation with desmin. To be noted: after PTL treatment; rat cardiomyocytes and C2C12 cells. On the procedure:
Microtubules were isolated for co-sedimentation from isolated cardiomyocytes or C2C12 cells following treatment with parthenolide. Cells were homogenized at 37° C. in 400 μl of microtubule-stabilizing buffer (MSB) by passage through 25G syringe needle. Homogenate was centrifuged to remove cell debris at 2000×g for 5 min at 37° C. and pellet was resuspended in RIPA buffer containing 5 mM CaCl2. Supematant containing free and polymerized tubulin was loaded on a cushion of 10% sucrose in MSB and centrifuged in SW-60 rotor at 100000×g for 30 min at 37° C. Supernatant was saved, pellet (polymerized MT fraction) was resuspended in 0° C. RIPA buffer containing 5 mM CaCl2 and incubated on ice for 10 min. All samples were then centrifuged at 14000×g for 5 min at 0° C. and supernatant was measured by Bradford assay against a BSA (Sigma) standard and boiled in 12-40 μl of 1× loading buffer (Li-COR, 928-40004) prior to western blotting.

The subject of data set [2] is human myocytes. Nature of the data set: Calcium measurements in human myocytes. On the procedure:
as §1
Calcium measurements were carried out as described in Example 1 with the following modifications. Myocytes were loaded with 1 μM Fluo-3-acetoxymethyl ester (Invitrogen) and 15% Pluronic F127 (a poloxamer made by BASF, Florham Park, N.J., USA) for 15 minutes. Cells were scanned using a 488-nm argon ion laser in confocal line-scan mode at 0.909 ms/line. Cells were electrically paced at 0.5 Hz at room temperature for 30 s to achieve steady state; five steady-state transients of each myocyte were averaged, pooled in groups and analyzed for calcium transient properties. The measured fluorescence (F) throughout the transient was normalized to the resting fluorescence prior to stimulation (F0) to normalize for heterogeneity in dye loading.

Setting [3] is: NF human myocytes, suggested off-target effect.

Each structure is given as a SMILES string.

As for `C=C1C(=O)O[C@H]2[C@H]1CC/C(C)=C/CC[C@@]1(C)O[C@@H]21` [PTL, 4,5-epoxygermacra-1(10),11(13)-dien-12,6-olactone], in the data set with human myocytes [1], the “viscoelasticity (Emax and EΔ)” value is recorded as “robustly reduced viscoelasticity”. In addition, in the data set with desmin KO myocytes, the “E1 (Pa)” value came out at 429.76 Pa, the “E2 (Pa)” value was 512.2 Pa and the “η (Pa*s)” value is 27.4 Pa*s. In addition, in the data set on desmin, the “amount of desmin associated with the MTs” value is given as “directly proportional to the amount of MT detyrosination”. In the data set with human myocytes [2] (setting [3]), the “[Ca2+]i amplitude” value was “reduced” and the “[Ca2+]i transient decay phase” value is “prolonged”. For the same molecule, the “impaired [Ca2+]i cycling” value in the data set with human myocytes [2] (failing human myocytes) is recorded as “neither colch nor PTL treatment improved”. Also, in the data set on human myocytes [2] (human myocytes), the “F0 (baseline fluo3 intensity) compared to initial levels” value is reported as “elevated”.

Values taken from patent publication US20180326022A1, “COMPOSITIONS AND METHODS FOR IMPROVING HEART FUNCTION AND TREATING HEART FAILURE” (The Trustees of the University of Pennsylvania, priority 2017, published 2018).
